This is an account of results in US9938257B2 (Sunshine Lake Pharma Co., Ltd., priority 2015, dated 2018).

Data set [1] is described as follows: Pharmacokinetics after intravenous and oral administration in rats. It counts as in vivo. The note with it: for F: oral bioavailability; for AUC(0-t) / half-life / Vd: rat, plasma; for Vd: read-out: Vss. Here is the method: The compounds disclosed herein are assessed in pharmacokinetic studies in mice, rats, dogs or monkeys. The compounds are administered as a water solution, 2% HPMC+1% TWEEN®80 in water solution, 5% DMSO+5% solutol in saline, 4% MC suspension or capsule. For the intravenous administration, the animals are generally given at 0.5, 1 or 2 mg/kg dose. For the oral (p.o.) dosing, mice and rats are generally given 0.5, 1, 5 or 10 mg/kg dose, and dogs and monkeys are generally given 10 mg/kg dose. The blood samples (0.3 mL) are drawn at 0.25, 0.5, 1.0, 2.0, 3.0, 4.0, 6.0, 8.0, 12 and 24 h time points or 0.083, 0.25, 0.5, 1.0, 2.0, 4.0, 6.0, 8.0 and 24 h time points and centrifuged at 3,000 or 4000 rpm for 2 to 10 min. The plasma solutions are collected, and stored at −20° C. or −70° C. until analyzed by LC/MS/MS as described above.

Data set [2] is described as follows: Compound stability in human liver microsomes. It is filed as in vitro ADME. The settings on record: pH 7.4; for half-life at 5 μM: human liver microsomes 0.5 mg protein/mL, compound 5 μM, NADPH 1.0 mM, 37° C., read-out: Human T1/2; for CLint scaled at 5 μM: human liver microsomes, in vivo CLint extrapolated. Here is the method:
(§1) Human or rat liver microsomes incubations were conducted in duplicate in polypropylene tubes. The typical incubation mixtures consisted of human or rat liver microsomes (0.5 mg protein/mL), compounds of interest (5 μM) and NADPH (1.0 mM) in a total volume of 200 μL potassium phosphate buffer (PBS, 100 mM, pH 7.4). Compounds were dissolved in DMSO and diluted with PBS such that the final concentration of DMSO was 0.05%. The enzymatic reactions were commenced with the addition of protein after a 3-min preincubation and incubated in a water bath open to the air at 37° C. Reactions were terminated at various time points (0, 5, 10, 15, 30, 60 min) by adding equal volume of ice-cold acetonitrile. The samples were stored at −80° C. until LC/MS/MS assays.
(§2) The concentrations of compounds in the incubation mixtures of human or rat liver microsomes were determined by a LC/MS/MS method. The ranges of the linearity in the concentration range were determined for each tested compounds.
(§3) A parallel incubation was performed using denatured microsomes as the negative control, and reactions were terminated at various time points (0, 15, 60 min) after incubation at 37° C.
(§4) Dextromethorphan (70 μM) was selected as the positive control, and reactions were terminated at various time points (0, 5, 10, 15, 30, 60 min) after incubation at 37° C. Both positive and negative control samples were included in each assay to ensure the integrity of the microsomal incubation system.
(§5) The concentrations of compounds in human or rat liver microsome incubations were plotted as a percentage of the relevant zero time point control for each reaction. The in vivo CLint were extrapolated (ref.: Naritomi, Y.; Terashita, S.; Kimura, S.; Suzuki, A.; Kagayama, A.; and Sugiyama, Y.; Prediction of human hepatic clearance from in vivo animal experiments and in vitro metabolic studies with liver microsomes from animals and humans. Drug Metab. Dispos., 2001, 29: 1316-1324).

Data set [3] is described as follows: Compound stability in rat liver microsomes. It counts as in vitro ADME. The note with it: pH 7.4; for half-life at 5 μM: rat liver microsomes 0.5 mg protein/mL, compound 5 μM, NADPH 1.0 mM, 37° C., read-out: Rat T1/2; for CLint scaled at 5 μM: rat liver microsomes, in vivo CLint extrapolated. Here is the method:
as §1, §2, §3, §4, §5

Like-named read-outs stand apart in the source and are kept apart here.

Broadly, the AUC(0-t) is exposure summed from dosing to a finite time, without extrapolation to infinity. What is called CLint scaled is a measure of how fast metabolising enzymes remove a compound, apart from limits set by blood flow. `Cn1cc(Nc2ncc(Cl)c(NC3CCC4(CC3)CCN(S(=O)(=O)C3CC3)CC4)n2)cn1`: in data set [1] (iv dosing, dose 1 mg/kg), the Cl/F was 46.3 mL/min/kg, the AUC(0-t) was 363 ng·h/mL, the half-life was 0.62 h and the Vd stood at 2.07 L/kg. Further, in data set [1] (iv dose 1 mg/kg), the F came to 64.4%. For the same compound, in data set [2], the half-life at 5 μM is 1.02 h and the CLint scaled at 5 μM was 28.5 mL/min/kg. In data set [3], the half-life at 5 μM turned out to be 0.501 h and the CLint scaled at 5 μM is 82.7 mL/min/kg.

`N#CCC(=O)N1CC2CC(Nc3nc(Nc4cnn(C5CCCNC5)c4)ncc3Cl)CC2C1` (centres unmarked) [Ex. 3, 3-(5-((5-chloro-2-((1-(piperidin-3-yl)-1H-pyrazol-4-yl)amino)pyrimidin-4-yl)amino)hexahydrocyclopenta[c]pyrrol-2(1H)-yl)-3-oxopropanenitrile]: in data set [2], the half-life at 5 μM was 9.24 h and the CLint scaled at 5 μM was 3.13 mL/min/kg. Further, in data set [3], the half-life at 5 μM came out at 0.0647 h and the CLint scaled at 5 μM was 639 mL/min/kg.

With `CC(=O)N1CC2CC(Nc3nc(Nc4cnn(C5CCCNC5)c4)ncc3Cl)CC2C1` (centres unmarked) [Ex. 4, 1-(5-((5-chloro-2-((1-(piperidin-3-yl)-1H-pyrazol-4-yl)amino)pyrimidin-4-yl)amino)hexahydrocyclopenta[c]pyrrol-2(1H)-yl)ethanone], the half-life at 5 μM in data set [2] was 15.9 h; in data set [3], 1.15 h. Also, the CLint scaled at 5 μM in data set [2] is 1.83 mL/min/kg; in data set [3], 36.1 mL/min/kg.

In the case of `N#CCC(=O)N1CC2CC(Nc3nc(Nc4cnn(C5CCNCC5)c4)ncc3Cl)CC2C1` (centres unmarked) [Ex. 5, 3-(5-((5-chloro-2-((1-(piperidin-4-yl)-1H-pyrazol-4-yl)amino)pyrimidin-4-yl)amino)hexahydrocyclopenta[c]pyrrol-2(1H)-yl)-3-oxopropanenitrile], in data set [2], the half-life at 5 μM stood at 17.4 h and the CLint scaled at 5 μM is 1.66 mL/min/kg.

In the case of `CC(=O)N1CC2CC(Nc3nc(Nc4cnn(C5CCNCC5)c4)ncc3Cl)CC2C1` (centres unmarked) [Ex. 6, 1-(5-((5-chloro-2-((1-(piperidin-4-yl)-1H-pyrazol-4-yl)amino)pyrimidin-4-yl)amino)hexahydrocyclopenta[c]pyrrol-2(1H)-yl)ethanone], the figures for the half-life at 5 μM in data set [2] and in data set [3] were 11 h and 44 h, respectively. The CLint scaled at 5 μM in data set [2] is 2.63 mL/min/kg; in data set [3], 0.94 mL/min/kg.

As for `CC(=O)N1CC2CC(Nc3nc(Nc4cnn(-c5ccccn5)c4)ncc3Cl)CC2C1` (centres unmarked) [Ex. 8, 1-(5-((5-chloro-2-((1-(pyridin-2-yl)-1H-pyrazol-4-yl)amino)pyrimidin-4-yl)amino)hexahydrocyclopenta[c]pyrrol-2(1H)-yl)ethanone], in data set [1] (iv dosing, dose 1 mg/kg), the “Clearance (CL) after iv dosing” value came out at 31 mL/min/kg, the AUC(0-t) came out at 558 ng·h/mL, the half-life is 0.56 h and the Vd came to 1.55 L/kg. In data set [1] (iv dose 1 mg/kg), this compound displayed an F of 36.9%. Moreover, in data set [2], the half-life at 5 μM stood at 0.524 h and the CLint scaled at 5 μM was 55.3 mL/min/kg. In data set [3], the half-life at 5 μM came to 0.27 h and the CLint scaled at 5 μM is 153 mL/min/kg.

For the compound `COc1ccc(-n2cc(Nc3ncc(Cl)c(NC4CC5CN(C(C)=O)CC5C4)n3)cn2)cn1` (centres unmarked) [Ex. 11, 1-(5-((5-chloro-2-((1-(6-methoxypyridin-3-yl)-1H-pyrazol-4-yl)amino)pyrimidin-4-yl)amino)hexahydrocyclopenta[c]pyrrol-2(1H)-yl)ethanone], in data set [1] (iv dosing, dose 1 mg/kg), the “Clearance (CL) after iv dosing” value amounted to 75.3 mL/min/kg, the AUC(0-t) is 235 ng·h/mL, the half-life is 0.3 h and the Vd was 1.22 L/kg. In data set [1] (iv dose 1 mg/kg), this compound came in with an F of 19.5%.

With `Cn1cc(Nc2ncc(Cl)c(NC3CCC4(CC3)CCN(C(=O)CC3CC3)CC4)n2)cn1` [Ex. 20, 1-(9-((5-chloro-2-((1-methyl-1H-pyrazol-4-yl)amino)pyrimidin-4-yl)amino)-3-azaspiro[5.5]undecan-3-yl)-2-cyclopropyl ethanone], in data set [1] (iv dosing, dose 0.5 mg/kg), the “Clearance (CL) after iv dosing” value came to 24.7 mL/min/kg, the AUC(0-t) was found to be 348 ng·h/mL, the half-life is 0.7 h and the Vd is 1.07 L/kg. Further, in data set [1] (iv dose 0.5 mg/kg), the F stood at 91.2%.

Turning to `Cn1cc(Nc2ncc(Cl)c(NC3CCC4(CC3)CCN(CC(C)(C)O)CC4)n2)cn1` [Ex. 21, 1-(9-((5-chloro-2-((1-methyl-1H-pyrazol-4-yl)amino)pyrimidin-4-yl)amino)-3-azaspiro[5.5]undecan-3-yl)-2-methylpropan-2-ol], in data set [1] (iv dosing, dose 1 mg/kg), the “Clearance (CL) after iv dosing” value worked out at 109 mL/min/kg, the AUC(0-t) is 147 ng·h/mL, the half-life was 1.46 h and the Vd amounted to 11.9 L/kg. The compound also came in with a F in data set [1] (iv dose 1 mg/kg) of 118.2%. Moreover, in data set [2], the half-life at 5 μM was 6.73 h and the CLint scaled at 5 μM was 4.3 mL/min/kg. Further, in data set [3], the half-life at 5 μM is 1.05 h and the CLint scaled at 5 μM is 39.5 mL/min/kg.

On to `Cn1cc(Nc2ncc(Cl)c(NC3CCC4(CC3)CCN(C(=O)C3CC3)CC4)n2)cn1` [Ex. 22, (9-((5-chloro-2-((1-methyl-1H-pyrazol-4-yl)amino)pyrimidin-4-yl)amino)-3-azaspiro[5.5]undecan-3-yl)(cyclopropyl)methanone], for which, in data set [1] (iv dosing, dose 1 mg/kg), the “Clearance (CL) after iv dosing” value was found to be 22.3 mL/min/kg, the AUC(0-t) is 746 ng·h/mL, the half-life is 0.56 h and the Vd was 1.21 L/kg. The F in data set [1] (iv dose 1 mg/kg) worked out at 84.6%. Moreover, in data set [2], the half-life at 5 μM is 1.09 h and the CLint scaled at 5 μM was 26.5 mL/min/kg. Also, in data set [3], the half-life at 5 μM worked out at 0.0555 h and the CLint scaled at 5 μM is 745 mL/min/kg.

With `Cn1cc(Nc2ncc(Cl)c(NC3CC4CN(C(=O)c5ccccc5)CC4C3)n2)cn1` (centres unmarked) [Ex. 27, (5-((5-chloro-2-((1-methyl-1H-pyrazol-4-yl)amino)pyrimidin-4-yl)amino)hexahydrocyclopenta[c]pyrrol-2(1H)-yl)(phenyl)methanone], in data set [1] (iv dosing, dose 1 mg/kg), the “Clearance (CL) after iv dosing” value came out at 77.7 mL/min/kg, the AUC(0-t) was found to be 218 ng·h/mL, the half-life was 0.22 h and the Vd is 0.93 L/kg. In data set [1] (iv dose 1 mg/kg), the F came to 22.5%.

For the compound `CC(=O)N1CCC2(CCC(Nc3nc(Nc4cnn(C5CCNCC5)c4)ncc3Cl)CC2)CC1` [Ex. 33, 1-(9-((5-chloro-2-((1-(piperidin-4-yl)-1H-pyrazol-4-yl)amino)pyrimidin-4-yl)amino)-3-azaspiro[5.5]undecan-3-yl)ethanone], in data set [2], the half-life at 5 μM is 4.58 h and the intrinsic metabolic clearance (CLint scaled) at 5 μM is 6.32 mL/min/kg. Moreover, in data set [3], the half-life at 5 μM is 5.36 h and the CLint scaled at 5 μM was 7.73 mL/min/kg.

On to `CC(C)(O)Cn1cc(Nc2ncc(Cl)c(NC3CC4CN(C(=O)NC5CC5)CC4C3)n2)cn1` (centres unmarked) [Ex. 36, 5-((5-chloro-2-((1-(2-hydroxy-2-methylpropyl)-1H-pyrazol-4-yl)amino)pyrimidin-4-yl)amino)-N-cyclopropylhexahydrocyclopenta[c]pyrrole-2(1H)-carboxamide], for which the values for the half-life at 5 μM in data set [2] and in data set [3] were 1.15 h and 0.511 h, respectively. Moreover, the CLint scaled at 5 μM was 25.1 mL/min/kg in data set [2] and 81 mL/min/kg in data set [3].

`CC(O)Cn1cc(Nc2nccc(NC3CC4CN(C(=O)NC5CC5)CC4C3)n2)cn1` (centres unmarked) [Ex. 42, N-cyclopropyl-5-((2-((1-(2-hydroxypropyl)-1H-pyrazol-4-yl)amino)pyrimidin-4-yl)amino)hexahydrocyclopenta[c]pyrrole-2(1H)-carboxamide]: in data set [2], the half-life at 5 μM worked out at 2.56 h and the CLint scaled at 5 μM is 11.3 mL/min/kg. Further, in data set [3], the half-life at 5 μM worked out at 6.24 h and the CLint scaled at 5 μM was 6.6 mL/min/kg.
